Consider 16 compounds from ChEMBL document CHEMBL3045935, “Benzoxepin derivatives: design, synthesis, and pharmacological evaluation with sedativehypnotic effect” (2012).

For assay [1], the system named is Mus musculus. Kind of assay: Sedative-hypnotic activity in Mus musculus (mouse) assessed as decrease in onset of phenobarbital-induced sleep at 19.6 to 42.6 mg/kg, ip incubated for 30 min prior to phenobarbital challenge relative to phenobarbital-treated mouse. To be noted: dose mg/kg 19.6-42.6; route intraperitoneal. The class given is functional.
In assay [2] the test system is Mus musculus. Kind of assay: Sedative-hypnotic activity in Mus musculus (mouse) assessed as increase in duration of phenobarbital-induced sleep at 19.6 to 42.6 mg/kg, ip incubated for 30 min prior to phenobarbital challenge relative to phenobarbital-treated mouse. In kind it is functional. The settings on record: dose mg/kg 19.6-42.6; route intraperitoneal.

`O=C1CCCOc2ccc(Cl)cc21`: the Time was 34.5 min in assay [1] and 59.5 min in assay [2].

Consider `CN(C)CC1CCOc2ccc(Cl)cc2C1=O` (configuration not stated), for which the Time amounted to 34 min in assay [1] and 61.3 min in assay [2].

Turning to `O=C1c2cc(Cl)ccc2OCCC1CN1CCCCC1` (configuration not stated), the results for the Time in assay [1] and in assay [2] were 24.5 min and 99.3 min, respectively.

With `CN1CCN(CC2CCOc3ccc(Cl)cc3C2=O)CC1` (configuration not stated), the Time in assay [1] turned out to be 38.8 min; in assay [2], 92.35 min.

On to `O=C1c2cc(Cl)ccc2OCCC1CN1CCN(c2ccccc2Cl)CC1` (configuration not stated), for which the figures for the Time in assay [1] and in assay [2] were 45.5 min and 45.25 min, respectively.

Consider `O=C1c2cc(Cl)ccc2OCCC1CN1CCOCC1` (configuration not stated), for which the Time in assay [1] was found to be 40.8 min; in assay [2] it was 75.25 min.

As for `O=C1/C(=C\c2ccccc2)CCOc2ccc(Cl)cc21`, the values for the Time in assay [1] and in assay [2] were 18 min and 84.3 min, respectively.

Turning to `O=C1/C(=C\c2ccc(F)cc2)CCOc2ccc(Cl)cc21`, the Time in assay [1] was 16.5 min; in assay [2] it was 103.15 min.

Consider `O=C1/C(=C\c2ccc(Cl)cc2)CCOc2ccc(Cl)cc21`, for which the Time in assay [1] was determined as 15 min; in assay [2], 105.5 min.

Take `COc1ccc(/C=C2/CCOc3ccc(Cl)cc3C2=O)cc1`: the Time in assay [1] came out at 17.6 min; in assay [2], 79.4 min.

Consider `O=C1c2cc(Cl)ccc2OCCC1Br` (configuration not stated), for which the Time came to 47 min in assay [1] and 39.15 min in assay [2].

`CCC1(c2ccccc2)C(=O)NC(=O)N(C2CCOc3ccc(Cl)cc3C2=O)C1=O` (configuration not stated): the results for the Time in assay [1] and in assay [2] were 21.5 min and 123.25 min, respectively.

Turning to `O=C1CC2CCOc3ccc(Cl)cc3C2=NN1c1ccccc1` (configuration not stated), the Time in assay [1] is reported as 20 min; in assay [2], 100.15 min.

`O=C1CC2CCOc3ccc(Cl)cc3C2=NN1c1ccc(Cl)cc1` (configuration not stated): the Time in assay [1] stood at 49.5 min; in assay [2] it was 42.15 min.

In the case of `COc1ccc(N2N=C3c4cc(Cl)ccc4OCCC3CC2=O)cc1` (configuration not stated), the Time is listed as 42.5 min in assay [1] and 38.45 min in assay [2].

For `CCC1(c2ccccc2)C(=O)NC(=O)NC1=O` [PHENOBARBITAL], the Time in assay [1] is given as 46.8 min; in assay [2] it was 100.5 min.
